Experimental data as given in the CheMixHub viscosity set.

Test: xn = mol fraction of the nth substance listed

ClCCl + Cc1ccccc1
101 kPa
Details | viscosity [mPa·s]
293.15 K, x1 = 0.1635 | 0.564
293.15 K, x1 = 0.3002 | 0.543
293.15 K, x1 = 0.4025 | 0.528
293.15 K, x1 = 0.4771 | 0.517
293.15 K, x1 = 0.5025 | 0.511
293.15 K, x1 = 0.5801 | 0.498
293.15 K, x1 = 0.5919 | 0.496
293.15 K, x1 = 0.675 | 0.479
293.15 K, x1 = 0.7431 | 0.468
293.15 K, x1 = 0.788 | 0.465
298.15 K, x1 = 0.2198 | 0.525
298.15 K, x1 = 0.3271 | 0.51
298.15 K, x1 = 0.4201 | 0.497
298.15 K, x1 = 0.5108 | 0.48
298.15 K, x1 = 0.5701 | 0.472
298.15 K, x1 = 0.6325 | 0.462
298.15 K, x1 = 0.6841 | 0.455
298.15 K, x1 = 0.7201 | 0.45
298.15 K, x1 = 0.7501 | 0.447
303.15 K, x1 = 0.218 | 0.497
303.15 K, x1 = 0.3331 | 0.481
303.15 K, x1 = 0.4402 | 0.467
303.15 K, x1 = 0.5223 | 0.45
303.15 K, x1 = 0.6191 | 0.436
303.15 K, x1 = 0.694 | 0.424
303.15 K, x1 = 0.7651 | 0.415
303.15 K, x1 = 0.8053 | 0.412

ClCCl + Cc1ccccc1C
101 kPa
Details | viscosity [mPa·s]
293.15 K, x1 = 0.3503 | 0.679
293.15 K, x1 = 0.4307 | 0.648
293.15 K, x1 = 0.4992 | 0.623
293.15 K, x1 = 0.5657 | 0.594
293.15 K, x1 = 0.6558 | 0.561
293.15 K, x1 = 0.7632 | 0.521
293.15 K, x1 = 0.8524 | 0.49
298.15 K, x1 = 0.2305 | 0.677
298.15 K, x1 = 0.3611 | 0.634
298.15 K, x1 = 0.449 | 0.602
298.15 K, x1 = 0.5343 | 0.572
298.15 K, x1 = 0.6293 | 0.542
298.15 K, x1 = 0.696 | 0.519
298.15 K, x1 = 0.7684 | 0.494
298.15 K, x1 = 0.826 | 0.476
298.15 K, x1 = 0.8658 | 0.465
303.15 K, x1 = 0.236 | 0.644
303.15 K, x1 = 0.3688 | 0.602
303.15 K, x1 = 0.4846 | 0.561
303.15 K, x1 = 0.5645 | 0.531
303.15 K, x1 = 0.6373 | 0.507
303.15 K, x1 = 0.7091 | 0.483
303.15 K, x1 = 0.7766 | 0.462
303.15 K, x1 = 0.8368 | 0.444
303.15 K, x1 = 0.861 | 0.437

C[Si]1(C)O[Si](C)(C)O[Si](C)(C)O[Si](C)(C)O1 + ClC(Cl)(Cl)Cl
101 kPa
Details | viscosity [mPa·s]
298.15 K, x1 = 0.1089 | 1.044
298.15 K, x1 = 0.1965 | 1.14
298.15 K, x1 = 0.289 | 1.245
298.15 K, x1 = 0.4288 | 1.407
298.15 K, x1 = 0.5841 | 1.595
298.15 K, x1 = 0.659 | 1.694
298.15 K, x1 = 0.8443 | 1.95
298.15 K, x1 = 0.9264 | 2.073
298.15 K, x1 = 0.9773 | 2.147
308.15 K, x1 = 0.1756 | 0.964
308.15 K, x1 = 0.3239 | 1.101
308.15 K, x1 = 0.5732 | 1.339
308.15 K, x1 = 0.729 | 1.493
308.15 K, x1 = 0.8636 | 1.646
308.15 K, x2 = 0.0183 | 1.786
318.15 K, x1 = 0.1779 | 0.844
318.15 K, x1 = 0.3249 | 0.956
318.15 K, x1 = 0.5816 | 1.148
318.15 K, x1 = 0.7307 | 1.27
318.15 K, x1 = 0.8652 | 1.388
318.15 K, x2 = 0.0179 | 1.498

ClCCl + ClC(Cl)(Cl)Cl
Details | viscosity [mPa·s]
303.15 K, 101.3 kPa, x2 = 0.506 | 0.5396

CC(=O)O + ClC(Cl)Cl
Details | viscosity [mPa·s]
298.15 K, 101.33 kPa, x2 = 0.0468 | 1.087
298.15 K, 101.33 kPa, x2 = 0.1013 | 0.997
298.15 K, 101.33 kPa, x2 = 0.1021 | 1.022
298.15 K, 101.33 kPa, x2 = 0.1487 | 0.954
298.15 K, 101.33 kPa, x2 = 0.203 | 0.925
298.15 K, 101.33 kPa, x2 = 0.2312 | 0.882
298.15 K, 101.33 kPa, x2 = 0.2997 | 0.837
298.15 K, 101.33 kPa, x2 = 0.3403 | 0.805
298.15 K, 101.33 kPa, x2 = 0.4207 | 0.759
298.15 K, 101.33 kPa, x2 = 0.4784 | 0.731
298.15 K, 101.33 kPa, x2 = 0.5017 | 0.717
298.15 K, 101.33 kPa, x2 = 0.5627 | 0.68
298.15 K, 101.33 kPa, x2 = 0.6215 | 0.657
298.15 K, 101.33 kPa, x2 = 0.7312 | 0.613
298.15 K, 101.33 kPa, x2 = 0.8031 | 0.589
298.15 K, 101.33 kPa, x2 = 0.8931 | 0.56
303.15 K, 101 kPa, x2 = 0.0819 | 0.8986
303.15 K, 101 kPa, x2 = 0.25 | 0.7244
303.15 K, 101 kPa, x2 = 0.7464 | 0.5285
313.15 K, 101 kPa, x2 = 0.0819 | 0.8287
313.15 K, 101 kPa, x2 = 0.25 | 0.6532
313.15 K, 101 kPa, x2 = 0.7464 | 0.484
323.15 K, 101 kPa, x2 = 0.0819 | 0.7516
323.15 K, 101 kPa, x2 = 0.25 | 0.5982
323.15 K, 101 kPa, x2 = 0.7464 | 0.4537

ClCCCl + ClC(Cl)Cl
303.15 K, 101.3 kPa
Details | viscosity [mPa·s]
x1 = 0.0711 | 0.524
x1 = 0.1645 | 0.5402
x1 = 0.216 | 0.5493
x1 = 0.3322 | 0.5723
x1 = 0.4444 | 0.5947
x1 = 0.5227 | 0.6115
x1 = 0.6269 | 0.6349
x1 = 0.7591 | 0.6659
x1 = 0.7901 | 0.6733
x1 = 0.8637 | 0.692
x1 = 0.935 | 0.7102

ClCCl + ClC(Cl)Cl
Details | viscosity [mPa·s]
303.15 K, 101.3 kPa, x1 = 0.4966 | 0.4521

ClCCl + ClCCCl
303.15 K, 101.3 kPa
Details | viscosity [mPa·s]
x2 = 0.0618 | 0.408
x2 = 0.1258 | 0.4242
x2 = 0.2132 | 0.4486
x2 = 0.3029 | 0.474
x2 = 0.419 | 0.5092
x2 = 0.5226 | 0.5436
x2 = 0.6033 | 0.5714
x2 = 0.7998 | 0.6445
x2 = 0.8933 | 0.6822
x2 = 0.9517 | 0.7068

CCNc1ccccc1 + Clc1ccccc1
viscosity [mPa·s], 101 kPa
Details | 303.15 K | 308.15 K
x1 = 0.0629 | 0.767 | 0.72
x1 = 0.1159 | 0.816 | 0.758
x1 = 0.1959 | 0.894 | 0.823
x1 = 0.2558 | 0.954 | 0.873
x1 = 0.3298 | 1.028 | 0.937
x1 = 0.3968 | 1.096 | 0.995
x1 = 0.4856 | 1.188 | 1.073
x1 = 0.5625 | 1.267 | 1.141
x1 = 0.6359 | 1.342 | 1.206
x1 = 0.7025 | 1.412 | 1.266
x1 = 0.7839 | 1.499 | 1.34
x1 = 0.8592 | 1.581 | 1.411
x1 = 0.9215 | 1.65 | 1.473
